Laboratory results as given in ChEMBL document CHEMBL3045164, “Combination of flavopiridol and embelin effectively inhibit cell growth in hepatocellular carcinoma depending on regulatory relationship between CDK6 and XIAP” (Med Chem Res, 2012).
The source made the active and inactive calls. No cut-off for these calls is given here.

Legend:
[1] = species: Homo sapiens; assay: Cytotoxicity against Homo sapiens (human) HepG2(2.2.1) cells assessed as growth inhibition at 15 uM after 24 to 72 hr by WST-8 assay; type: functional, cell-based
[2] = species: Homo sapiens; assay: Cytotoxicity against Homo sapiens (human) HepG2(2.2.1) cells assessed as growth inhibition at 10 uM after 24 to 72 hr by WST-8 assay; type: functional, cell-based
[3] = species: Homo sapiens; assay: Cytotoxicity against Homo sapiens (human) HepG2(2.2.1) cells assessed as growth inhibition at 20 uM after 24 to 72 hr by WST-8 assay; type: functional, cell-based
[4] = species: Homo sapiens; assay: Cytotoxicity against Homo sapiens (human) HepG2(2.2.1) cells assessed as growth inhibition at 75 nM after 24 to 72 hr by WST-8 assay; type: functional, cell-based
[5] = species: Homo sapiens; assay: Cytotoxicity against Homo sapiens (human) HepG2(2.2.1) cells assessed as growth inhibition at 100 nM after 24 to 72 hr by WST-8 assay in presence of 75 uM XIAP inhibitor embelin; type: functional, cell-based
[6] = species: Homo sapiens; assay: Cytotoxicity against Homo sapiens (human) HepG2(2.2.1) cells assessed as growth inhibition at 75 nM after 24 to 72 hr by WST-8 assay in presence of 15 uM XIAP inhibitor embelin; type: functional, cell-based
[7] = species: Homo sapiens; assay: Cytotoxicity against Homo sapiens (human) HepG2(2.2.1) cells assessed as growth inhibition at 50 nM after 24 to 72 hr by WST-8 assay; type: functional, cell-based
[8] = species: Homo sapiens; assay: Cytotoxicity against Homo sapiens (human) HepG2(2.2.1) cells assessed as growth inhibition at 50 nM after 24 to 72 hr by WST-8 assay in presence of 10 uM XIAP inhibitor embelin; type: functional, cell-based
[9] = target: G1/S-specific cyclin-D1 (Homo sapiens) (UniProt P24385); assay: Inhibition of cyclin D1 in Homo sapiens (human) HepG2(2.2.1) cells assessed as downregulation of XIAP expression at 500 nM after 24 hr by Western blot analysis
[10] = target: Cyclin-dependent kinase 6 (Homo sapiens) (UniProt Q00534); assay: Inhibition of CDK6 in Homo sapiens (human) HepG2(2.2.1) cells assessed as downregulation of XIAP expression at 500 nM after 24 hr by Western blot analysis
[11] = target: Cyclin-dependent kinase 4 (Homo sapiens) (UniProt P11802); assay: Inhibition of CDK4 in Homo sapiens (human) HepG2(2.2.1) cells assessed as downregulation of XIAP expression at 500 nM after 24 hr by Western blot analysis
[12] = Downregulation of CDK2 expression in Homo sapiens (human) HepG2(2.2.1) cells at 500 nM after 24 hr by Western blot analysis; type: functional
[13] = Downregulation of CDK1 expression in Homo sapiens (human) HepG2(2.2.1) cells at 500 nM after 24 hr by Western blot analysis; type: functional
[14] = Downregulation of XIAP expression in Homo sapiens (human) HepG2(2.2.1) cells after 24 hr by Western blot analysis; type: functional
[15] = Downregulation of XIAP expression in Homo sapiens (human) HepG2(2.2.1) cells at 500 nM after 24 hr by Western blot analysis; type: functional
[16] = Downregulation of CDK6 expression in Homo sapiens (human) HepG2(2.2.1) cells at 500 nM after 24 hr by Western blot analysis; type: functional
[17] = Downregulation of CDK4 expression in Homo sapiens (human) HepG2(2.2.1) cells at 500 nM after 24 hr by Western blot analysis; type: functional
[18] = Downregulation of cyclin D1 expression in Homo sapiens (human) HepG2(2.2.1) cells at 500 nM after 24 hr by Western blot analysis; type: functional
[19] = Induction of apoptosis in Homo sapiens (human) HepG2(2.2.1) cells at 500 nM after 24 hr by annexin V-FITC/propidium iodide staining-based flow cytometric analysis (reference value: 2.20%); type: functional
[20] = Cell cycle arrest in Homo sapiens (human) HepG2(2.2.1) cells assessed as accumulation at G2 phase at 500 nM after 24 hr by propidium iodide staining-based flow cytometric analysis (reference value: 24.38 +/- 2.02 %); type: functional
[21] = Cell cycle arrest in Homo sapiens (human) HepG2(2.2.1) cells assessed as accumulation at S phase at 500 nM after 24 hr by propidium iodide staining-based flow cytometric analysis (reference value: 22.55 +/- 2.98 %); type: functional
[22] = Cell cycle arrest in Homo sapiens (human) HepG2(2.2.1) cells assessed as accumulation at G1 phase at 500 nM after 24 hr by propidium iodide staining-based flow cytometric analysis (reference value: 53.07 +/- 3.01 %); type: functional
[23] = Cell cycle arrest in Homo sapiens (human) HepG2(2.2.1) cells assessed as accumulation at G2 phase at 300 nM after 24 hr by propidium iodide staining-based flow cytometric analysis (reference value: 24.38 +/- 2.02 %); type: functional
[24] = Cell cycle arrest in Homo sapiens (human) HepG2(2.2.1) cells assessed as accumulation at S phase at 300 nM after 24 hr by propidium iodide staining-based flow cytometric analysis (reference value: 22.55 +/- 2.98 %); type: functional
[25] = Cell cycle arrest in Homo sapiens (human) HepG2(2.2.1) cells assessed as accumulation at G1 phase at 300 nM after 24 hr by propidium iodide staining-based flow cytometric analysis (reference value: 53.07 +/- 3.01 %); type: functional
[26] = Cell cycle arrest in Homo sapiens (human) HepG2(2.2.1) cells assessed as accumulation at G2 phase at 100 nM after 24 hr by propidium iodide staining-based flow cytometric analysis (reference value: 24.38 +/- 2.02 %); type: functional
[27] = Cell cycle arrest in Homo sapiens (human) HepG2(2.2.1) cells assessed as accumulation at S phase at 100 nM after 24 hr by propidium iodide staining-based flow cytometric analysis (reference value: 22.55 +/- 2.98 %); type: functional
[28] = species: Homo sapiens; assay: Cytotoxicity against Homo sapiens (human) HepG2(2.2.1) cells assessed as growth inhibition at 100 nM after 24 to 72 hr by WST-8 assay; type: functional, cell-based
[29] = Cell cycle arrest in Homo sapiens (human) HepG2(2.2.1) cells assessed as accumulation at G1 phase at 100 nM after 24 hr by propidium iodide staining-based flow cytometric analysis (reference value: 53.07 +/- 3.01 %); type: functional
[30] = (§1) Cytotoxicity against Homo sapiens (human) HepG2(2.2.1) cells assessed as growth inhibition after 24 to 72 hr by WST-8 assay; type: functional, cell-based
[31] = species: Homo sapiens; assay: as §1; type: functional, cell-based

Sequence of G1/S-specific cyclin-D1 (Homo sapiens) (P24385 whole entry): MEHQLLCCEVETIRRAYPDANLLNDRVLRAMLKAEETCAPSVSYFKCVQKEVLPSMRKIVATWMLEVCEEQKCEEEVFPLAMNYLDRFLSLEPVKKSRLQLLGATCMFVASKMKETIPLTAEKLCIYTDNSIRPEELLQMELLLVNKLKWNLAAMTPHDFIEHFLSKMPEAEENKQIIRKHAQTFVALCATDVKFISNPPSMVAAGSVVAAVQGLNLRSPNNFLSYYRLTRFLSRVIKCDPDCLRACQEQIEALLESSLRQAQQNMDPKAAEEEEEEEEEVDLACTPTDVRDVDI
Sequence of Cyclin-dependent kinase 4 (Homo sapiens) (P11802 whole entry): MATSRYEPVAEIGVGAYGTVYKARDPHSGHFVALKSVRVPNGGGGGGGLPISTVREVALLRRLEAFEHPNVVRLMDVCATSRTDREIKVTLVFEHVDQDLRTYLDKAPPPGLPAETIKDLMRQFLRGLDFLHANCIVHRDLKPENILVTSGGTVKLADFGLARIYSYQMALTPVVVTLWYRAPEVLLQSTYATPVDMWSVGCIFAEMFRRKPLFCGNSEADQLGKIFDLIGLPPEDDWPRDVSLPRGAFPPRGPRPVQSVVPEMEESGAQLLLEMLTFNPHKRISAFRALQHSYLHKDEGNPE
Sequence of Cyclin-dependent kinase 6 (Homo sapiens) (Q00534 whole entry): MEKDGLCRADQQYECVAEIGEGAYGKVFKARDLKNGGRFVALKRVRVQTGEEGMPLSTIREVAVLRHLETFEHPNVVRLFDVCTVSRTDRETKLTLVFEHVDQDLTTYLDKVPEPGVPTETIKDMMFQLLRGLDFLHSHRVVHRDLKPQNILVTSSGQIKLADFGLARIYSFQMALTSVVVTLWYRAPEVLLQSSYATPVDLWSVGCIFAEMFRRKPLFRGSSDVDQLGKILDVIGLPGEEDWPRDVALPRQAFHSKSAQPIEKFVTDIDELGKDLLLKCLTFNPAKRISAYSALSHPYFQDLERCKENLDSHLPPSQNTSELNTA

## CCCCCCCCCCCC1=C(O)C(=O)C=C(O)C1=O
[1]
  growth inhibition (GI): Active
[2]
  growth inhibition (GI): Active
[3]
  growth inhibition (GI): Active

## CN1CC[C@H](c2c(O)cc(O)c3c(=O)cc(-c4ccccc4Cl)oc23)[C@H](O)C1 [ALVOCIDIB]
[4]
  growth inhibition (GI): Active
[5]
  growth inhibition (GI): Active
[6]
  growth inhibition (GI): Active
[7]
  growth inhibition (GI): Active
[8]
  growth inhibition (GI): Active
[9]
  inhibition: Active
[10]
  inhibition: Active
[11]
  inhibition: Active
[12]
  Activity: inactive
[13]
  Activity: inactive
[14]
  Activity: Dose-dependent effect
[15]
  Activity: Active
[16]
  Activity: Active
[17]
  Activity: Active
[18]
  Activity: Active
[19]
  Activity: 14.28%
[20]
  Activity: 20.9%
[21]
  Activity: 21.2%
[22]
  Activity: 57.9%
[23]
  Activity: 15.7%
[24]
  Activity: 27.9%
[25]
  Activity: 56.4%
[26]
  Activity: 23.2%
[27]
  Activity: 22.2%
[28]
  growth inhibition (GI): Active
[29]
  Activity: 54.6%
[30]
  IC50: 200 nM
[31]
  growth inhibition (GI): Dose-dependent effect
